Target: Transforming growth factor beta-1 proprotein/Mothers against decapentaplegic homolog 3 (Mus musculus) (UniProt P04202+Q8BUN5)
Assay: Inhibition of TGF-beta1/Smad3 signalling in TGF-beta1 treated mouse NIH3T3 cells transfected with (CAGA)12-Lux reporter gene assessed as suppressive ratio at 10 uM incubated for 18 hrs by luciferase based analysis relative to control
Assay type: cell-based
Parameters: scale not given: the % may be the effect or the level left

Chain of Transforming growth factor beta-1 proprotein/Mothers against decapentaplegic homolog 3 (Mus musculus) (P04202 279-390 limits assumed): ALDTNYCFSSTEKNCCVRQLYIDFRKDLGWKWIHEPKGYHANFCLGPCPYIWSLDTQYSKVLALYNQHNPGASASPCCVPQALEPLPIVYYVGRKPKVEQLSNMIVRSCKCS
Chain of Transforming growth factor beta-1 proprotein/Mothers against decapentaplegic homolog 3 (Mus musculus) (Q8BUN5 2-425 partner limits assumed): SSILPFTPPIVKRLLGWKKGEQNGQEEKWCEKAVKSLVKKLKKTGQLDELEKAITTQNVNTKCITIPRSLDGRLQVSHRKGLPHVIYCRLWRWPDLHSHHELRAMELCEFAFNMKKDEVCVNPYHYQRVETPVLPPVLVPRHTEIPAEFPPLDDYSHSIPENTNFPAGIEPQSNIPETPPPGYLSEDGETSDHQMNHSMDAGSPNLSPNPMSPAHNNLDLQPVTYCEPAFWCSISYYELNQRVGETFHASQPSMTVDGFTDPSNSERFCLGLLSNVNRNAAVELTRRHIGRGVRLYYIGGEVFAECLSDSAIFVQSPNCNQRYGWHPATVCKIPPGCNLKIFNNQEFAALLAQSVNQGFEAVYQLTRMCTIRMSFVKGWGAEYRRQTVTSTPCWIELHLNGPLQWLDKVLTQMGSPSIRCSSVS

First: C=C[C@]1(C)C[C@@H](O)[C@]2(C)[C@H](C)CC[C@]3(C/C(=C\c4ncccc4F)C(=O)[C@H]32)[C@@H](C)[C@@H]1O
Second: C=C[C@]1(C)C[C@@H](O)[C@]2(C)[C@H](C)CC[C@]3(C/C(=C\c4cccnc4)C(=O)[C@H]32)[C@@H](C)[C@@H]1O
The Activity of the first is higher: 13.5% for the first, 0.29% for the second.

Compared with `C=C[C@]1(C)C[C@@H](O)[C@]2(C)[C@H](C)CC[C@]3(C/C(=C\c4ccccc4N4CCOCC4)C(=O)[C@H]32)[C@@H](C)[C@@H]1O`, `C=C[C@]1(C)C[C@@H](O)[C@]2(C)[C@H](C)CC[C@]3(C/C(=C\c4ccc(C(=O)N5CCOCC5)cc4)C(=O)[C@H]32)[C@@H](C)[C@@H]1O` is lower in Activity: 20.6% for the first, -19.9% for the second.

Going from `C=C[C@]1(C)C[C@@H](O)[C@]2(C)[C@H](C)CC[C@]3(C/C(=C\c4ccccc4)C(=O)[C@H]32)[C@@H](C)[C@@H]1O` to `C=C[C@]1(C)C[C@@H](O)[C@]2(C)[C@H](C)CC[C@]3(C/C(=C\C=C\c4ccccc4)C(=O)[C@H]32)[C@@H](C)[C@@H]1O`, the Activity rises from 15.2% to 34%.

First: NC(=O)c1ccc(-c2nc(-c3ccccn3)c(-c3ccc4c(c3)OCO4)[nH]2)cc1
Second: C=C[C@]1(C)C[C@@H](O)[C@]2(C)[C@H](C)CC[C@]3(C/C(=C\c4ccc(C(=O)Nc5ccccc5)cc4)C(=O)[C@H]32)[C@@H](C)[C@@H]1O
The Activity of the first is higher: 98.9% for the first, -27.7% for the second.

First: C=C[C@]1(C)C[C@@H](O)[C@]2(C)[C@H](C)CC[C@]3(C/C(=C\CCC)C(=O)[C@H]32)[C@@H](C)[C@@H]1O
Second: C=C[C@]1(C)C[C@@H](O)[C@]2(C)[C@H](C)CC[C@]3(C/C(=C\CCCC)C(=O)[C@H]32)[C@@H](C)[C@@H]1O
The Activity of the first is lower: 0.45% for the first, 16.9% for the second.

First: C=C[C@]1(C)C[C@@H](O)[C@]2(C)[C@H](C)CC[C@]3(C/C(=C\c4ccc(C(=O)NC5CCN(C)CC5)cc4)C(=O)[C@H]32)[C@@H](C)[C@@H]1O
Second: C=C[C@]1(C)C[C@@H](O)[C@]2(C)[C@H](C)CC[C@]3(C/C(=C\c4ccc(C(=O)N5CCCCC5)cc4)C(=O)[C@H]32)[C@@H](C)[C@@H]1O
The Activity of the first is higher: -9.93% for the first, -16.7% for the second.

Going from `C=C[C@]1(C)C[C@@H](O)[C@]2(C)[C@H](C)CC[C@]3(C/C(=C\CC(C)(C)C)C(=O)[C@H]32)[C@@H](C)[C@@H]1O` to `C=C[C@]1(C)C[C@@H](O)[C@]2(C)[C@H](C)CC[C@]3(C/C(=C\C(C)(C)C)C(=O)[C@H]32)[C@@H](C)[C@@H]1O`, the Activity falls from 18.5% to 6.58%.

Going from `C=C[C@]1(C)C[C@@H](O)[C@]2(C)[C@H](C)CC[C@]3(C/C(=C\c4ccc(C(C)(C)C)cc4)C(=O)[C@H]32)[C@@H](C)[C@@H]1O` to `C=C[C@]1(C)C[C@@H](O)[C@]2(C)[C@H](C)CC[C@]3(C/C(=C\c4ccc(C)cc4)C(=O)[C@H]32)[C@@H](C)[C@@H]1O`, the Activity rises from 13.3% to 32.8%.

Going from `C=C[C@]1(C)C[C@@H](O)[C@]2(C)[C@H](C)CC[C@]3(C/C(=C\C4CCCCC4)C(=O)[C@H]32)[C@@H](C)[C@@H]1O` to `C=C[C@]1(C)C[C@@H](O)[C@]2(C)[C@H](C)CC[C@]3(C/C(=C\C4CCCC4)C(=O)[C@H]32)[C@@H](C)[C@@H]1O`, the Activity falls from 32.4% to 30.6%.

Compared with `C=C[C@]1(C)C[C@@H](O)[C@]2(C)[C@H](C)CC[C@]3(C/C(=C\c4cccc(C(=O)N5CCN(C)CC5)c4)C(=O)[C@H]32)[C@@H](C)[C@@H]1O`, `C=C[C@]1(C)C[C@@H](O)[C@]2(C)[C@H](C)CC[C@]3(C/C(=C\c4ccc(C(=O)N(C)C)cc4)C(=O)[C@H]32)[C@@H](C)[C@@H]1O` is lower in Activity: 7.27% for the first, -20.3% for the second.

Compared with `C=C[C@]1(C)C[C@@H](O)[C@]2(C)[C@H](C)CC[C@]3(C/C(=C\c4c(C)cc(C)cc4C)C(=O)[C@H]32)[C@@H](C)[C@@H]1O`, `C=C[C@]1(C)C[C@@H](O)[C@]2(C)[C@H](C)CC[C@]3(C/C(=C\c4ccc(F)cc4)C(=O)[C@H]32)[C@@H](C)[C@@H]1O` is lower in Activity: 42.5% for the first, 35.3% for the second.

Going from `C=C[C@]1(C)C[C@@H](O)[C@]2(C)[C@H](C)CC[C@]3(C/C(=C\c4ccc(C(F)(F)F)cc4)C(=O)[C@H]32)[C@@H](C)[C@@H]1O` to `C=C[C@]1(C)C[C@@H](O)[C@]2(C)[C@H](C)CC[C@]3(C/C(=C\c4ccc5ccccc5c4)C(=O)[C@H]32)[C@@H](C)[C@@H]1O`, the Activity falls from 35.5% to 26.5%.

— ChEMBL document CHEMBL5108019, “Discovery of a novel Pleuromutilin derivative as anti-IPF lead compound via high-throughput assay” (Eur J Med Chem, 2022)
